What was measured:
[1] = molecular target: T1, PAS domain-containing serine/threonine-protein kinase (Homo sapiens, UniProt Q96RG2); test: Inhibition of purified human PASK kinase domain expressed in insect cells using MBP protein substrate incubated for 10 mins before ATP addition and measured after 1 hr by kinase-Glo luminescent kinase assay
[2] = molecular target: T1, PAS domain-containing serine/threonine-protein kinase; test: Inhibition of purified full-length human PASK expressed in insect cells using MBP protein substrate incubated for 10 mins before ATP addition and measured after 1 hr by kinase-Glo luminescent kinase assay
[3] = molecular target: Casein kinase II subunit alpha' (Homo sapiens, UniProt P19784); test: Inhibition of GST-tagged full-length purified human CK2a2 using RRRDDDSDDD substrate incubated for 120 mins in presence of [33P]ATP by scintillation counting based biochemical assay
[4] = molecular target: T1, PAS domain-containing serine/threonine-protein kinase; test: Inhibition of N-terminal GST-tagged human recombinant PASK kinase domain (879 to 1323 residues) expressed in insect cells using MBP protein substrate incubated for 120 mins in presence of [33P]ATP by scintillation counting based radiochemical assay
[5] = molecular target: T1, PAS domain-containing serine/threonine-protein kinase; test: Inhibition of human recombinant PASK using Ulight-peptide substrate incubated for 2 hrs by TR-FRET assay

T1 sequence (Q96RG2 whole entry, the tested form may be a part): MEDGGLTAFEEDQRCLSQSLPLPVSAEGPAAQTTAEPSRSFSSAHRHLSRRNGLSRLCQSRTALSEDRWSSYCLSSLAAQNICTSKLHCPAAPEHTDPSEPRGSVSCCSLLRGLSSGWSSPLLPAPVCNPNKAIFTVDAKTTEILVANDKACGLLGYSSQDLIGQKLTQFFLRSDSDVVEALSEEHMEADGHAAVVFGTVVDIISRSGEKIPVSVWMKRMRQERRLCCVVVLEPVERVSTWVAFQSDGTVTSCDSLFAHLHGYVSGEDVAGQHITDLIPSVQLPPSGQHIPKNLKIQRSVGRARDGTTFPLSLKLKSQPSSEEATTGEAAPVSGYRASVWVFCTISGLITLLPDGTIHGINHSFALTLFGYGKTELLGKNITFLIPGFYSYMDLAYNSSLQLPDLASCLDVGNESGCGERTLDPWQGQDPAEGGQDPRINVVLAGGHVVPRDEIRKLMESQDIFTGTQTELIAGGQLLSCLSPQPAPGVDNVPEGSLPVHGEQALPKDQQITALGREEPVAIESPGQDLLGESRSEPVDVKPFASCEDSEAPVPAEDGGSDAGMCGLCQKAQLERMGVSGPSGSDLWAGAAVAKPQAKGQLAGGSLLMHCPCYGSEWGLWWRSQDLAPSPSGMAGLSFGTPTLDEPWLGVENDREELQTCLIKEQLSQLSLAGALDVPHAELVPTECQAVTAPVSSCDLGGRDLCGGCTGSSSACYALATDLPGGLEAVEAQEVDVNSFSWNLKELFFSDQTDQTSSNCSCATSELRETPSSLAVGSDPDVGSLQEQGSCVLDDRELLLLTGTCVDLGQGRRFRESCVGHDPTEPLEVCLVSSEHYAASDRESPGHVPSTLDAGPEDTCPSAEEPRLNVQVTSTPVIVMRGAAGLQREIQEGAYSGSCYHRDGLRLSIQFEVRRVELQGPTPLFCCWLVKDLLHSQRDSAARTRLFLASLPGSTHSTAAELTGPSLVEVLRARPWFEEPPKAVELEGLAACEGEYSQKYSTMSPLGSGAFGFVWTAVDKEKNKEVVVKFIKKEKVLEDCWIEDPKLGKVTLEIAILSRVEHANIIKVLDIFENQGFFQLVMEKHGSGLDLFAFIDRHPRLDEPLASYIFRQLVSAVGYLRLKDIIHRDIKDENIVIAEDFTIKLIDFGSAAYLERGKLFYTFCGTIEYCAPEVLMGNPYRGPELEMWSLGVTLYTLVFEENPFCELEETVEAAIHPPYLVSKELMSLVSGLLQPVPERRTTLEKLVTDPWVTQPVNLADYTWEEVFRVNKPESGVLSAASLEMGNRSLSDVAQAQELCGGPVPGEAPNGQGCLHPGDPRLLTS
Sequence of Casein kinase II subunit alpha' (P19784 whole entry, the tested form may be a part): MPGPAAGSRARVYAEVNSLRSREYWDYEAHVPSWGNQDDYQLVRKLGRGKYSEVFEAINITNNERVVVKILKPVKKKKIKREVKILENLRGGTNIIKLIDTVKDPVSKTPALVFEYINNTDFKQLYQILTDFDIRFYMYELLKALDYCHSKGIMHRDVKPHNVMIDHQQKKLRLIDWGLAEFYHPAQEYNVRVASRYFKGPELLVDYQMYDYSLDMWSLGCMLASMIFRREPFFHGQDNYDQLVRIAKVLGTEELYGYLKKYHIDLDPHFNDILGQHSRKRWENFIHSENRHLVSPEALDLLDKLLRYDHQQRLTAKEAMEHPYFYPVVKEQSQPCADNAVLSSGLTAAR

| SMILES | IC50 [1] [µM] | IC50 [2] [µM] | IC50 [3] [µM] | IC50 [4] [µM] | IC50 [5] [µM] |
| --- | --- | --- | --- | --- | --- |
| Cc1nn2c(=O)cc(-c3ccc(Cl)cc3)[nH]c2c1-c1ccccc1 | ≤ 10 | ≤ 10 |  |  |  |
| O=c1cc(-c2ccc3[nH]nnc3c2)[nH]c2c(-c3cccnc3)cnn12 |  |  | ≤ 10 | ≤ 10 | ≤ 10 |
| CCCNC(=O)c1cnn2c(=O)cc(-c3ccc4[nH]nnc4c3)[nH]c12 |  |  | ≤ 10 | ≤ 10 | ≤ 10 |
| CCc1c(C)[nH]c2c(-c3ccc(Cl)cc3)c(C)nn2c1=O | ≥ 10 | ≥ 10 |  |  |  |
| O=c1c2c([nH]c3c(-c4ccc(Cl)cc4)c(Cc4ccccc4)nn13)CCC2 | ≥ 10 | ≥ 10 |  |  |  |
| O=c1cc(-c2ccc3c(c2)OC(F)(F)O3)[nH]c2c(-c3ccccn3)cnn12 |  |  | ≤ 10 | ≤ 10 | ≤ 10 |
| Cc1nn2c(=O)c3c([nH]c2c1-c1ccc(Cl)cc1)CCC3 | ≥ 10 | ≥ 10 |  |  |  |
| Cc1nn2c(=O)cc(-c3ccc4c(c3)OCO4)[nH]c2c1Cc1ccccn1 |  |  | ≤ 10 | ≤ 10 | ≤ 10 |
| O=c1cc(-c2ccc3[nH]nnc3c2)[nH]c2c(-c3ccc(Cl)cc3)cnn12 |  |  | ≤ 10 | ≤ 10 | ≤ 10 |
| CCc1nn2c(=O)cc(-c3ccc4c(c3)OCO4)[nH]c2c1-c1ccccn1 |  |  | ≤ 10 | ≤ 10 | ≤ 10 |
| Nc1nn2c(=O)cc(-c3ccc(Cl)cc3F)[nH]c2c1-c1ccccn1 |  |  | ≤ 10 | ≤ 10 | ≤ 10 |
| CCCNC(=O)c1c(N)nn2c(=O)cc(-c3ccc4[nH]nc(C)c4c3)[nH]c12 |  |  | ≤ 10 | ≤ 10 | ≤ 10 |
| O=c1cc(-c2ccc(-c3ncco3)cc2)[nH]c2c(-c3ccccn3)cnn12 |  |  | ≥ 10 | ≤ 10 | ≤ 10 |
| COc1ccc(-c2c(Cc3ccccc3)nn3c(=O)cc(-c4ccccc4)[nH]c23)cc1 |  | ≥ 10 |  |  |  |
| O=c1cc(-c2cc3nn[nH]c3cc2F)[nH]c2c(-c3ccccn3)cnn12 |  |  | ≤ 10 | ≤ 10 | ≤ 10 |
| Nc1nn2c(=O)cc(-c3ccc(Cl)cc3)[nH]c2c1-c1ccccn1 |  |  | ≤ 10 | ≤ 10 | ≤ 10 |
| CCCNC(=O)c1c(O)nn2c(=O)cc(-c3ccc4c(c3)OCO4)[nH]c12 |  |  | ≤ 10 | ≤ 10 | ≤ 10 |
| COc1c(-c2cc(=O)n3ncc(-c4ccccn4)c3[nH]2)ccc2[nH]nnc12 |  |  | ≤ 10 | ≤ 10 | ≤ 10 |
| COc1ccc(-c2cc(=O)n3nc(C)c(-c4ccccc4)c3[nH]2)cc1 | ≤ 10 | ≤ 10 |  |  |  |
| O=c1c2c([nH]c3c(-c4ccccc4)c(-c4ccccc4)nn13)CCC2 |  | ≥ 10 |  |  |  |
| Nc1nn2c(=O)cc(-c3ccc4c(c3)OCCO4)[nH]c2c1-c1ccccn1 |  |  | ≤ 10 | ≤ 10 | ≤ 10 |
| CCCNC(=O)c1cnn2c(=O)cc(-c3ccc4c(c3)OCCO4)[nH]c12 |  |  | ≤ 10 | ≤ 10 | ≤ 10 |
| Nc1nn2c(=O)cc(-c3ccc4[nH]nnc4c3)[nH]c2c1-c1ccc(Cl)cc1 |  |  | ≤ 10 | ≤ 10 | ≤ 10 |
| Nc1nn2c(=O)cc(-c3ccc(F)cc3)[nH]c2c1-c1ccccn1 |  |  | ≤ 10 | ≤ 10 | ≤ 10 |

| SMILES | IC50 [1] [µM] | IC50 [2] [µM] | IC50 [3] [µM] | IC50 [4] [µM] | IC50 [5] [µM] |
| --- | --- | --- | --- | --- | --- |
| O=C(NCc1ccccc1)c1cnn2c(=O)cc(-c3ccc(Cl)cc3)[nH]c12 |  |  | ≤ 10 | ≤ 10 | ≤ 10 |
| CCCc1cc(=O)n2nc(Cc3ccccc3)c(-c3ccc(Cl)cc3)c2[nH]1 | ≥ 10 | ≥ 10 |  |  |  |
| O=c1cc(-c2ccccc2)[nH]c2c(-c3ccc(Cl)cc3)c(Cc3ccccc3)nn12 | ≥ 10 | ≥ 10 |  |  |  |
| CCCNC(=O)c1c(N)nn2c(=O)cc(-c3ccc4c(cnn4C)c3)[nH]c12 |  |  | ≤ 10 | ≤ 10 | ≤ 10 |
| Cc1nn2c(=O)c(C#N)c(-c3ccccc3)[nH]c2c1-c1ccccc1 |  | ≥ 10 |  |  |  |
| COc1ccc(Cc2nn3c(=O)cc(-c4ccccc4)[nH]c3c2-c2ccccc2)cc1 | ≥ 10 | ≥ 10 |  |  |  |
| N#Cc1ccc(-c2cc(=O)n3ncc(-c4ccccn4)c3[nH]2)cc1 |  |  | ≥ 10 | ≤ 10 | ≤ 10 |
| O=c1cc(-c2ccc([N+](=O)[O-])cc2)[nH]c2c(-c3ccc(Cl)cc3)c(Cc3ccccc3)nn12 | ≤ 10 | ≤ 10 |  |  |  |
| Nc1nn2c(=O)cc(-c3ccc4[nH]nnc4c3)[nH]c2c1-c1ccccc1 |  |  | ≤ 10 | ≤ 10 | ≤ 10 |
| Cc1cc(=O)n2nc(-c3ccc(Cl)cc3)cc2[nH]1 |  | ≤ 10 |  |  |  |
| O=c1cc(Cc2ccccc2)[nH]c2c(-c3ccccc3)c(Cc3ccccc3)nn12 | ≥ 10 | ≥ 10 |  |  |  |
| Cc1nn2c(=O)cc(-c3ccc([N+](=O)[O-])cc3)[nH]c2c1-c1ccc(Cl)cc1 | ≤ 10 | ≤ 10 |  |  |  |
| COc1c(-c2cc(=O)n3nc(C)c(-c4ccccn4)c3[nH]2)ccc2c1OCO2 |  |  | ≤ 10 | ≤ 10 | ≤ 10 |
| Cc1nn2c(=O)cc(-c3ccccc3)[nH]c2c1-c1ccc(F)cc1 | ≥ 10 | ≥ 10 |  |  |  |
| CC(=O)Nc1nn2c(=O)cc(-c3ccc4c(c3)OCO4)[nH]c2c1-c1ccccn1 |  |  | ≤ 10 | ≤ 10 | ≤ 10 |
| CCNc1nn2c(=O)cc(-c3ccc4c(c3)OCO4)[nH]c2c1-c1ccccn1 |  |  | ≤ 10 | ≤ 10 | ≤ 10 |
| Nc1nn2c(=O)cc(-c3ccc4c(c3)OCO4)[nH]c2c1-c1ccccn1 |  |  | ≤ 10 | ≤ 10 | ≤ 10 |
| CCCNC(=O)c1c(N)nn2c(=O)cc(-c3ccc4[nH]ncc4c3)[nH]c12 |  |  | ≤ 10 | ≤ 10 | ≤ 10 |
| COCc1cc(=O)n2nc(Cc3ccccc3)c(-c3ccc(Cl)cc3)c2[nH]1 | ≥ 10 | ≥ 10 |  |  |  |
| O=c1cc(-c2ccccc2)[nH]c2c(-c3ccccc3)c(Cc3ccccc3)nn12 |  | ≥ 10 |  |  |  |
| COc1cc2[nH]nnc2cc1-c1cc(=O)n2nc(N)c(-c3ccccn3)c2[nH]1 |  |  | ≥ 10 | ≤ 10 | ≤ 10 |
| Nc1nn2c(=O)cc(-c3ccc4[nH]ncc4c3)[nH]c2c1-c1ccccn1 |  |  | ≤ 10 | ≤ 10 | ≤ 10 |
| CCc1c(C)[nH]c2c(-c3ccccc3)c(Cc3ccc(OC)cc3)nn2c1=O | ≥ 10 | ≥ 10 |  |  |  |
| CCCNC(=O)c1c(N)nn2c(=O)cc(-c3ccc(Cl)cc3)[nH]c12 |  |  | ≤ 10 | ≤ 10 | ≤ 10 |

| SMILES | IC50 [1] [µM] | IC50 [2] [µM] | IC50 [3] [µM] | IC50 [4] [µM] | IC50 [5] [µM] |
| --- | --- | --- | --- | --- | --- |
| COCc1cc(=O)n2nc(Cc3ccccc3)c(-c3ccc(OC)cc3)c2[nH]1 | ≥ 10 | ≥ 10 |  |  |  |
| O=c1cc(-c2ccc3[nH]nnc3c2)[nH]c2c(-c3ccccn3)c(O)nn12 |  |  | ≤ 10 | ≤ 10 | ≤ 10 |
| COc1ccccc1-c1cc(=O)n2nc(C)c(-c3ccccc3)c2[nH]1 | ≤ 10 | ≤ 10 |  |  |  |
| COc1c(-c2cc(=O)n3nc(N)c(-c4ccccn4)c3[nH]2)ccc2c1OCO2 |  |  | ≤ 10 | ≤ 10 | ≤ 10 |
| Cc1[nH]c2c(-c3ccc(Cl)cc3)cnn2c(=O)c1Cc1ccccc1 | ≤ 10 | ≤ 10 |  |  |  |
| CCCc1cc(=O)n2nc(C)c(-c3ccc(Cl)cc3)c2[nH]1 | ≥ 10 | ≥ 10 |  |  |  |
| CC(=O)Nc1nn2c(=O)cc(-c3ccc4c(cnn4C)c3)[nH]c2c1-c1ccccn1 |  |  | ≤ 10 | ≤ 10 | ≤ 10 |
| CCc1nn2c(=O)cc(-c3ccc4[nH]nnc4c3)[nH]c2c1-c1ccccn1 |  |  | ≤ 10 | ≤ 10 | ≤ 10 |
| COc1ccc(-c2nn3c(=O)cc(C(C)C)[nH]c3c2-c2ccccc2)cc1 | ≥ 10 | ≥ 10 |  |  |  |
| COc1ccc(Cc2nn3c(=O)cc(C)[nH]c3c2-c2ccccc2)cc1 | ≥ 10 | ≥ 10 |  |  |  |
| O=c1cc(-c2ccc3occc3c2)[nH]c2c(-c3cccnc3)c(O)nn12 |  |  | ≤ 10 | ≤ 10 | ≤ 10 |
| O=c1cc(-c2ccc3[nH]ncc3c2)[nH]c2c(-c3ccccn3)cnn12 |  |  | ≤ 10 | ≤ 10 | ≤ 10 |
| COc1c(-c2cc(=O)n3nc(O)c(-c4ccccn4)c3[nH]2)ccc2c1OCO2 |  |  | ≤ 10 | ≤ 10 | ≤ 10 |
| CCCNC(=O)c1c(N)nn2c(=O)cc(-c3ccc4[nH]nnc4c3)[nH]c12 |  |  | ≤ 10 | ≤ 10 | ≤ 10 |
| Cc1cc(=O)n2nc(C)c(-c3ccc(Cl)cc3)c2[nH]1 | ≥ 10 | ≥ 10 |  |  |  |
| Cc1cc(=O)n2nc(-c3cccc(Br)c3)cc2[nH]1 |  | ≤ 10 |  |  |  |
| O=c1cc(-c2ccccc2)[nH]c2c(-c3cccc4ccccc34)c(Cc3ccccc3)nn12 | ≥ 10 | ≥ 10 |  |  |  |
| O=c1cc(-c2ccc3c(c2)OCO3)[nH]c2c(-c3ncccc3F)cnn12 |  |  | ≤ 10 | ≤ 10 | ≤ 10 |
| COCc1cc(=O)n2nc(-c3ccc(Cl)cc3)cc2[nH]1 | ≥ 10 | ≥ 10 |  |  |  |
| Nc1nn2c(=O)cc(-c3ccc4[nH]nnc4c3)[nH]c2c1-c1ccccn1 |  |  | ≤ 10 | ≤ 10 | ≤ 10 |
| COc1ccc(-c2c(C)nn3c(=O)cc(Cc4ccccc4)[nH]c23)cc1 | ≥ 10 | ≥ 10 |  |  |  |
| CN(Cc1ccccc1)C(=O)c1cnn2c(=O)cc(-c3ccc4c(c3)OCCO4)[nH]c12 |  |  | ≤ 10 | ≤ 10 | ≤ 10 |
| Cc1nn2c(=O)cc(-c3ccccc3)[nH]c2c1-c1ccc(Cl)cc1 | ≤ 10 | ≤ 10 |  |  |  |
| COc1ccc(-c2c(C)nn3c(=O)cc(-c4ccccc4)[nH]c23)cc1 |  | ≥ 10 |  |  |  |

— ChEMBL document CHEMBL3714729, “Heterocyclic compounds for the inhibition of pask” (2012)
